The values below come from patent US20150266864A1, “HETEROAROMATIC COMPOUNDS, METHOD FOR PREPARING THE COMPOUNDS, PHARMACEUTICAL COMPOSITIONS, USES AND METHOD FOR TREATING ACUTE AND CHRONIC PAIN” (CRISTÁLIA PRODUTOS QUÍMICOS FARMACÊUTICOS LTDA, priority 2012, published 2015).

The test system of data set [1] is Swiss mice. The data set is described as follows: Hot plate model, assay for acute pain. In kind it is in vivo. Particulars: ip, 32.25 μmol/kg.
Another data set deals with Swiss-type male mice. The data set is described as follows: RotaRod performance test, motor coordination. Particulars: for Mice residence time on the rotational cylinder: 9 rpm, cut off 180 s, mean ± SEM. The method, then:
The assessment of motor coordination in mice, by the rotarod performance test, was carried out to detect any possible sedative or muscle relaxant effect caused by the compounds of the present invention, previously tested in acute and neuropathic pain models. This test was carried out according to the method of described by Dunham & Miya and animal motor coordination was evaluated using RotaRod apparatus [Dunham M. S. & Miya. R. T. (1957). J. Amer. Pharmac. Assoc. Sci. Edit. 1957, 46, 208-209].
The RotaRod apparatus (Model 412 EFF, Insight Equipements, Brazil) is a device that measures motor coordination and thus evaluates balance alterations in mice. The apparatus consists of an acrylic box splited into four compartments with a rotational cylinder among them. The cylinder rotates at constant speed driven by a motor and regulated to the constant speed mode of 5-37 revolutions per minute (rpm). In this study the speed was set up to 9 rpm.
To remain on the rotational cylinder, the animal needs to move around, so that the motor coordination can be quantified. The four compartments have drop detection system, through the impact, a microprocessor circuit, for timing the permanence of the animal at the compartment, and for counting the number of falls.
The day before the test, Swiss-type male mice (19-25 g) were placed on the rotational cylinder, set up to the constant speed mode of 9 rpm for adaptation and learning. A group of 10 mice were used for each tested compound, and the total period spent on the rotational cylinder (in seconds) was recorded for a period of 180 seconds (cut off time) and it was accept a maximum of three falls for each animal. Motor coordination was assessed at times 0 (before treatment), 15, 30, 60 and 120 minutes after compounds administration at a dose of 32.25 μmol/kg.
All compounds were administered intraperitoneally (ip).
The Student's t-test was also used to compare means between two experimental groups. Differences were considered significant when p<0.05.

In data set [2] the test system is rats subjected to SNL. The data set is described as follows: Spinal nerve ligation (SNL) L5 model, thermal hyperalgesia. In kind it is in vivo, rat. The method, then:
(§1) This experimental model was proposed by Kim and Chung [Kim, S. H.; Chung, J. M. Pain 1992, 50: 355-363] and consists of ligation of spinal nerves. Male Wistar rats, 180-220 g, were anesthetized with a mixture of ketamine and xylazine (60 mg/kg and 5 mg/kg, respectively) intraperitoneally. After the dorsal region asepsy, an incision was made between L5 and S1. The L6 transverse process was removed for locating the nerves L4 and L5, which were carefully isolated, and tight ligation of the L5 nerve with 6.0 silk thread was made, interrupting flow of the axon of the nerve. After this procedure, para-spinal muscles and skin were sutured, and then a topical antiseptic was applied. False operated animals (sham) were subjected to the same procedure, however the spinal nerve was not ligated.
This method aims to evaluate the animal behavior in response to hyperalgesic phenomenon resulting from the injury induced by the ligament of spinal nerve (L5). In this regard, paw withdrawal in response to thermal stimulus was used, and the thermal stimulus was induced by the radiant heat of an incandescent lamp bulb. The paw withdrawal test was performed as described for the assessment of thermal hyperalgesia in the sciatic nerve chronic constrictive injury model.
(§2) Differences were considered significant when p<0.05.
(§3) The treatment started on the 7th day after surgery. Compounds were diluted in water or DMSO and administered through intraperitoneal route on daily basis, during 7 days, at a dose of […]. The effectiveness of tested compounds was assessed on days 1, 3, and 7 days after treatment, always before the next administration of the compound. Latencies were also assessed on days 1, 3, and 7 after treatment interruption.

Data set [3] deals with Swiss mice. The data set is described as follows: Hot plate model, assay for acute pain. In kind it is in vivo. The settings on record: ip, 32.25 μmol/kg, plate 52° C., compared to morphine sulfate at the same dose. The text has this:
The antinociceptive activity (AA) of the present invention selected compounds (C3, C9, C11, C12, C13, C15 and C17) was investigated in hot plate model [Hot Plate Model LE7406, Scientific Inc.] described by Kuraishi et al. [Kuraishi, Y., Harada, Y., Aratani, S., Satoh, M., Takagi, H. Brain Research 1983.273, 245-2523]. This method is valid to evaluate the analgesic activity of substances acting on the central nervous system. Swiss mice weighing 20-25 g were placed on a metal plate heated up to 52° C. The animals were withdrawn from the hot plate at the time they lead their forepaws toward the mouth to lick, being this an indicative of pain second Le Bars et al. [Le Bars, D., Gozariu, M., Cadden, S. W. Animal models of nociception. Pharmacol. Rev. 2001, 53 (4), 597-652]. In this way, it was analyzed how long the animal, treated or not (control) with the analgesic substance, remained on the plate at 52° C.; the longest residence time of an animal on the plate was 35 seconds. This time limit (or cut off) (35 s) was determined by the average of three measurements of latency control values, obtained for each animal multiplied by three, to prevent any kind of tissue injury on the footpad of animals's paw due to long permanence on the heated surface. The protocol consisted in the intraperitoneal (ip) injection of the selected compounds of the present invention at a dose of 32.25 μmol/kg. The antinociceptive activity was evaluated at intervals of 10 minutes until effect completely disappear and, compared to morphine sulfate ([…]) at the same dose of 32.25 μmoles/kg (12.2 mg/kg). The investigated parameter is the latency of reflex to paw withdrawal in response to thermal stimulus. The results were expressed as percentage of AA, which was calculated according to Equation 1 for each experiment.

The subject of data set [4] is rats subjected to SNL. The data set is described as follows: Spinal nerve ligation (SNL) L5 model, mechanical allodynia (digital Von Frey). In kind it is in vivo, rat. The method, then: as §1
To evaluate the development of mechanical allodynia, digital analgesimeter (Model EFF301; Insight Equipments), digitalized version coupled to a pointed filament (Von Frey model variant) was used. This test aims to assess changes in tactile sensitivity in response to a mechanical stimulus as a result of a neural damage. The device consisted of a hand-held force transducer fitted with a sensor tip, through which a pressure with increasing strength is applied against the footpad of the animals hindpaw to assess the threshold of paw withdrawal, that is, the digital analgesimeter records the maximal strength, in grams (g), in which the animal withstands until the paw withdrawal reflex.
Animals were placed in individual acrylic boxes and let to acclimate for 30 min before the beginning of the test. After this period, the thresholds of hindpaw withdrawal were determinded. For each hindpaw, five records of the withdrawal thresholds were made, and the average for each hindpaw was defined as the paw withdrawal threshold control.
as §3, §2

Setting [5] is: T 15 min after ip administration, 32.25 μmol/kg.
Setting [6] is: T 30 min after ip administration, 32.25 μmol/kg (diazepam 2 mg/kg).
The mark [7] stands for this setting: T 60 min after ip administration, 32.25 μmol/kg (diazepam 2 mg/kg).
Setting [8] is: T 120 min after ip administration, 32.25 μmol/kg (diazepam 2 mg/kg).
Where [9] appears, read: ip during 7 days, 32.25 μmol/kg.

As for `CCN1CCN(CCc2c[nH]nc2-c2ccc(F)cc2)CC1.Cl.Cl.Cl.O.O.O` [C12, 1-ethyl-4-{2-[3-(4-fluorophenyl)-1H-pyrazol-4-yl]ethyl}piperazine trihydrochloride trihydrate], the “side effects compared to morphine” value with Swiss mice [1] is “no side effects of conventional morphine”. For the same compound, the “animal residence time on the rotational cylinder compared to controls” value in the data set on Swiss-type male mice (15 minutes after administration, 32.25 μmol/kg) was “equal to the time observed for the negative control, and significantly higher than the time observed for the control amitriptyline hydrochloride”. Also, the “Mice residence time on the rotational cylinder” value (from here on “Mice residence time”) came out at 179.6 s in the data set on Swiss-type male mice (setting [5]), 178.6 s in the data set on Swiss-type male mice (setting [6]), 178.2 s in the data set with Swiss-type male mice (setting [7]) and 179.8 s in the data set with Swiss-type male mice (setting [8]). For the same compound, in the data set with rats subjected to SNL [2] (setting [9]), the “reversal of hyperalgesia signs associated with neuropathic pain” value was “effective in reverse the hyperalgesia and allodynia signs”. The “increase on the latency vs control post-surgery” value in the data set on rats subjected to SNL [2] (since the 3rd day of treatment, 32.25 μmol/kg ip) is recorded as “statistically significant increase”. Also, the “antinociceptive activity (AA), hot plate” value in the data set with Swiss mice [3] is “exhibit antinociceptive activity of intensity and kinetics similar to morphine sulfate”. The “paw withdrawal threshold, mechanical allodynia” value with rats subjected to SNL [4] (after 3 days of treatment, 32.25 μmol/kg ip, p<0.05) was “significant (p<0.05) paw withdrawal threshold”. In the data set on rats subjected to SNL [4] (setting [9]), the “reversal of allodynia signs associated with neuropathic pain” value was “effective in reverse the hyperalgesia and allodynia signs”.

`OC1(c2ccc(Cl)cc2)CCN(CCc2c[nH]nc2-c2ccc(F)cc2)CC1` [C13, 4-(4-chlorophenyl)-1-{2-[3-(4-fluorophenyl)-1H-pyrazol-4-yl]ethyl}piperidin-4-ol] came in with a melting point of 142 to 144 °C. Also, the “side effects compared to morphine” value in the data set with Swiss mice [1] is recorded as “no side effects of conventional morphine”. Besides, the “Mice residence time” value with Swiss-type male mice (setting [5]) turned out to be 100.9 s. In addition, the “Mice residence time” value in the data set on Swiss-type male mice (setting [6]) was 95.5 s. Moreover, the “Mice residence time” value in the data set with Swiss-type male mice (setting [7]) stood at 143.7 s. Further, the “Mice residence time” value with Swiss-type male mice (setting [8]) came to 152.4 s. Further, the “antinociceptive activity (AA), hot plate” value in the data set on Swiss mice [3] is “exhibit antinociceptive activity of intensity and kinetics similar to morphine sulfate”.
